Assay results published in the supplement of paper PMC11208160.

Assay: recombinant barcode read abundance after kanamycin selection (control-corrected) (log10(CPM+1)); higher = more efficient recombination; sequences stand for … in AGTGCAGAGAAAATCGGCCAGTTTTCTCTGCCTGCAGTCCGCATGCCGT…AGATTTATGCAGCGGACTGCCTTTCTCCCAAAGTGATAAACCGGACAGTATCATGGACCGGTTTTCCCGGTAATCCGTATTTGCAAGGTTGGTTTCACT; site = the 11-nt target
Procedure, shortened: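 Targets and IS621 bridge RNA target-binding loops were paired in oligos, each with a promoter, a barcode and the J23119-driven first 104 bridge RNA bases. A vector carrying the remaining 73 bp and a T7-inducible recombinase received these by Gibson cloning, and the pool was co-electroporated into E. coli with a donor plasmid. Duplicate plates contained chloramphenicol/ampicillin LB agar (control) or chloramphenicol/ampicillin/kanamycin with 0.1 mM IPTG. Recombination efficiency comes from averaged, control-corrected counts per million of recombinant-junction barcodes, reported as log10(CPM+1).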
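Also: IS621 recombinase and bridge RNA in Escherichia coli cells.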

| Sequence | recombinant barcode read abundance (log10) |
| --- | --- |
| GGGGCGTCTTGGGTTCTAACCTGTTGCCT (site GGGGCGGCTAG) | 0.172 |
| GGGGCGTCTTGGGTTCTAACCTGTTGCCT (site GGGGCGTCTAG) | 1.55 |
| GGGGCGTCTTGGGTTCTAACCTGTTGCTG (site GGGGCGTCTCA) | 2.44 |
| GGGGCGTCTTGGGTTCTAACCTGTTGCTG (site TCCATAACTAG) | 0.175 |
| GGGGCTTCTTGGGTTCTAACCTGTTGCCT (site GAGGCTTCTAG) | 0.0126 |
| GGGGCTTCTTGGGTTCTAACCTGTTGCCT (site GCGGCTTCTAG) | 0.207 |
| GGGGCTTCTTGGGTTCTAACCTGTTGCCT (site GGGGCTTCTAG) | 0.919 |
| GGGGCTTCTTGGGTTCTAACCTGTTGCCT (site GTGGCTTCTAG) | 0.245 |
| GGGGTATCTTGGGTTCTAACCTGTTGCCT (site GCGGTATCTAG) | 0.0929 |
| GGGGTATCTTGGGTTCTAACCTGTTGCCT (site GGGGTATCTAG) | 1.21 |
| GGGTAAACTTGGGTTCTAACCTGTTGCCT (site GGGTAAACTAG) | 0.953 |
| GGGTAAACTTGGGTTCTAACCTGTTGCCT (site GGGTAATCTAG) | 0.702 |
| GGGTAACCTTGGGTTCTAACCTGTTGCCT (site AGGTAACCTAG) | 0 |
| GGGTAACCTTGGGTTCTAACCTGTTGCCT (site CGGTAACCTAG) | 0.064 |
| GGGTAACCTTGGGTTCTAACCTGTTGCCT (site GGGTAACCTAG) | 0.406 |
| GGGTAACCTTGGGTTCTAACCTGTTGCCT (site TGGTAACCTAG) | 0.19 |
| GGGTCCACTTGGGTTCTAACCTGTTGCCA (site GGGTCCACTCC) | 0.127 |
| GGGTCCACTTGGGTTCTAACCTGTTGCCA (site GGGTCCACTTG) | 1.44 |
| GGGTCCTCTTGGGTTCTAACCTGTTGCCA (site GGGTCCTCTAG) | 1.69 |
| GGGTCCTCTTGGGTTCTAACCTGTTGCCA (site GGGTCCTCTCG) | 0.29 |
| GGGTCCTCTTGGGTTCTAACCTGTTGCCA (site GGGTCCTCTGG) | 0.0677 |
| GGGTCCTCTTGGGTTCTAACCTGTTGCCA (site GGGTCCTCTTG) | 1.29 |

| Sequence | recombinant barcode read abundance (log10) |
| --- | --- |
| GGGTCCTCTTGGGTTCTAACCTGTTGCCT (site GGGTCCTCTAG) | 2.24 |
| GGGTCCTCTTGGGTTCTAACCTGTTGCCT (site GGGTCCTCTCG) | 0.776 |
| GGGTCCTCTTGGGTTCTAACCTGTTGCCT (site GGGTCCTCTGG) | 0.578 |
| GGGTCCTCTTGGGTTCTAACCTGTTGCCT (site GGGTCCTCTTG) | 0.155 |
| GGGTCGGCTTGGGTTCTAACCTGTTGCGA (site GGGTCGGCTAC) | 0.231 |
| GGGTCGGCTTGGGTTCTAACCTGTTGCGA (site GGGTCGGCTCC) | 0.552 |
| GGGTCGGCTTGGGTTCTAACCTGTTGCGA (site GGGTCGGCTGC) | 0.179 |
| GGGTCGGCTTGGGTTCTAACCTGTTGCGA (site GGGTCGGCTTC) | 2.27 |
| GGTAAAGCTTGGGTTCTAACCTGTTGCCT (site GGTAAAGCTAG) | 0.71 |
| GGTAAAGCTTGGGTTCTAACCTGTTGCCT (site GGTATAGCTAG) | 0.216 |
| GGTAATACTTGGGTTCTAACCTGTTGCAT (site AACGTACCTTG) | 0.191 |
| GGTAATACTTGGGTTCTAACCTGTTGCAT (site GGTAATACTAT) | 0.957 |
| GGTACGCCTTGGGTTCTAACCTGTTGCAT (site GGTACGACTCT) | 0.17 |
| GGTACGCCTTGGGTTCTAACCTGTTGCAT (site GGTACGCCTAT) | 0.685 |
| GGTAGGACTTGGGTTCTAACCTGTTGCCT (site AGTAGGACTAG) | 0.239 |
| GGTAGGACTTGGGTTCTAACCTGTTGCCT (site CGTAGGACTAG) | 0.0936 |
| GGTAGGACTTGGGTTCTAACCTGTTGCCT (site GGTAGGACTAG) | 0.278 |
| GGTAGGACTTGGGTTCTAACCTGTTGCCT (site TGTAGGACTAG) | 0.0335 |
| GGTATGACTTGGGTTCTAACCTGTTGCCT (site AGTATGACTAG) | 0.595 |
| GGTATGACTTGGGTTCTAACCTGTTGCCT (site CGTATGACTAG) | 0.197 |
| GGTATGACTTGGGTTCTAACCTGTTGCCT (site GGTATGACTAG) | 0.956 |
| GGTATGACTTGGGTTCTAACCTGTTGCCT (site TGTATGACTAG) | 0.0723 |

| Sequence | recombinant barcode read abundance (log10) |
| --- | --- |
| GGTATGTCTTGGGTTCTAACCTGTTGCCT (site AGTATGTCTAG) | 0.204 |
| GGTATGTCTTGGGTTCTAACCTGTTGCCT (site CGTATGTCTAG) | 0.0446 |
| GGTATGTCTTGGGTTCTAACCTGTTGCCT (site GGTATGTCTAG) | 1.96 |
| GGTATGTCTTGGGTTCTAACCTGTTGCCT (site TGTATGTCTAG) | 0.106 |
| GGTCATTCTTGGGTTCTAACCTGTTGCCT (site GGTCATACTAG) | 0.0311 |
| GGTCATTCTTGGGTTCTAACCTGTTGCCT (site GGTCATCCTAG) | 0.157 |
| GGTCATTCTTGGGTTCTAACCTGTTGCCT (site GGTCATGCTAG) | 0.0124 |
| GGTCATTCTTGGGTTCTAACCTGTTGCCT (site GGTCATTCTAG) | 0.626 |
| GGTCGGACTTGGGTTCTAACCTGTTGCCA (site GGACGGACTTG) | 0.281 |
| GGTCGGACTTGGGTTCTAACCTGTTGCCA (site GGTCGGACTTG) | 0.548 |
| GGTCGGACTTGGGTTCTAACCTGTTGCGT (site GGAGGGACTAC) | 0.0819 |
| GGTCGGACTTGGGTTCTAACCTGTTGCGT (site GGTCGGACTAC) | 2.17 |
| GGTCGTACTTGGGTTCTAACCTGTTGCCT (site CCGTTGTCTTA) | 0.177 |
| GGTCGTACTTGGGTTCTAACCTGTTGCCT (site GGTCGTACTAG) | 0.286 |
| GGTGAGCCTTGGGTTCTAACCTGTTGCGT (site CACACTACTCA) | 0.0427 |
| GGTGAGCCTTGGGTTCTAACCTGTTGCGT (site GGTGAGCCTAC) | 2.68 |
| GGTGCCTCTTGGGTTCTAACCTGTTGCAT (site GGGGCCTCTCT) | 0.258 |
| GGTGCCTCTTGGGTTCTAACCTGTTGCAT (site GGTGCCTCTAT) | 1.46 |
| GGTGCGGCTTGGGTTCTAACCTGTTGCCT (site AGTGCGGCTAG) | 0.492 |
| GGTGCGGCTTGGGTTCTAACCTGTTGCCT (site CGTGCGGCTAG) | 0.139 |
| GGTGCGGCTTGGGTTCTAACCTGTTGCCT (site GGTGCGGCTAG) | 0.494 |
| GGTGCGGCTTGGGTTCTAACCTGTTGCCT (site TGTGCGGCTAG) | 0.505 |

| Sequence | recombinant barcode read abundance (log10) |
| --- | --- |
| GGTGGATCTTGGGTTCTAACCTGTTGCCT (site GGTGACTCTAG) | 0.0125 |
| GGTGGATCTTGGGTTCTAACCTGTTGCCT (site GGTGGATCTAG) | 0.813 |
| GGTGGCTCTTGGGTTCTAACCTGTTGCCA (site GGTGGCTCTTG) | 0.607 |
| GGTGGCTCTTGGGTTCTAACCTGTTGCCA (site TAATCTCCTAC) | 0.0407 |
| GGTGGGTCTTGGGTTCTAACCTGTTGCAT (site GGTGGGTCTAA) | 0.345 |
| GGTGGGTCTTGGGTTCTAACCTGTTGCAT (site GGTGGGTCTAC) | 0.128 |
| GGTGGGTCTTGGGTTCTAACCTGTTGCAT (site GGTGGGTCTAG) | 0.805 |
| GGTGGGTCTTGGGTTCTAACCTGTTGCAT (site GGTGGGTCTAT) | 2.25 |
| GGTGGGTCTTGGGTTCTAACCTGTTGCCT (site GGTGGGTCTAA) | 0.123 |
| GGTGGGTCTTGGGTTCTAACCTGTTGCCT (site GGTGGGTCTAC) | 0.123 |
| GGTGGGTCTTGGGTTCTAACCTGTTGCCT (site GGTGGGTCTAG) | 1.29 |
| GGTGGGTCTTGGGTTCTAACCTGTTGCCT (site GGTGGGTCTAT) | 0.382 |
| GGTTCCTCTTGGGTTCTAACCTGTTGCCT (site GGATCGTCTAG) | 0.0714 |
| GGTTCCTCTTGGGTTCTAACCTGTTGCCT (site GGTTCCTCTAG) | 1.11 |
| GGTTCTCCTTGGGTTCTAACCTGTTGCCT (site AGTTCTCCTAG) | 0.0625 |
| GGTTCTCCTTGGGTTCTAACCTGTTGCCT (site CGTTCTCCTAG) | 0.0451 |
| GGTTCTCCTTGGGTTCTAACCTGTTGCCT (site GGTTCTCCTAG) | 0.288 |
| GGTTCTCCTTGGGTTCTAACCTGTTGCCT (site TGTTCTCCTAG) | 0.0347 |
| GGTTCTTCTTGGGTTCTAACCTGTTGCCT (site GATTCTTCTAG) | 0.12 |
| GGTTCTTCTTGGGTTCTAACCTGTTGCCT (site GCTTCTTCTAG) | 0.0288 |
